Data from patent US11713305B2, “Zinc sensors for in vivo imaging of beta-cell function by MRI” (The Board of Regents of the University of Texas System, priority 2017, dated 2023).

What was measured:
[1] = 17O NMR of Gd complexes (water exchange, SBM fitting); assay type: physicochemical; parameters: A/ℏ: unit not given here; details: for hyperfine coupling constant (AO/ℏ): 17O NMR fit, underlined values fixed during fitting; for water exchange rate kex^310 / ΔH‡ / ER / τRO^298 / A/ℏ / EV / Δ^2 / τV^298: 17O NMR; for water exchange rate kex^310 / ΔH‡: 9.4 T; for water exchange rate kex^310: 310 K; for ΔH‡ / ER / τRO^298 / A/ℏ / EV / Δ^2 / τV^298: best-fit; for ΔH‡: [Gd^3+]=25 mM; for ER: activation energy of rotational correlation time; for τRO^298: rotational correlation time; for A/ℏ: scalar coupling constant; for EV / Δ^2 / τV^298: sometimes fixed; for water exchange rate kex: slowest exchange rates, in 1/s; for faster water exchange rates: compared with GdL1 and GdL4; for empirical constant describing the outer sphere contribution to the 17O chemical shift, Cos: fitted
Procedure: Given that the rate of water exchange (kex) in these complexes is likely the limiting factor in determining the magnitude of r1 increase when the GdL-Zn complexes bind to HSA, further temperature dependent ^17O NMR studies were performed to evaluate the water exchange rates. A simultaneous analysis of ^17O reduced T1, T2, and chemical shift (Δωr) data were analyzed (Powell et al., 1996; Gonzalez et al., 1994; Martins et al., 2013; Martins et al., 2015) to estimate the q values, kex, and hyperfine coupling constants for GdL1-5.
^17O NMR experiments were performed at 9.4 T on a Bruker AVANCE III NMR spectrometer. The temperature was regulated by air flow controlled by a Bruker VT unit. The samples ([Gd^3+]=25 mM; [Dy^3+]=1 mM) were prepared in ^17O enriched water (10%) with the pH being maintained at 7.4 with 100 mM Tris buffer. The sample was loaded into a 18 μL spherical bulb (Wilmad-Lab Glass, Vineland, NJ) and placed inside a 5 mm NMR tube containing 400 μL of water to eliminate any susceptibility effects. Longitudinal relaxation rates (1/T1) were obtained by the inversion recovery method and transverse relaxation rates (1/T2) were obtained by the Carr-Purcell—Meiboom—Gill spin echo technique. The acidified water (pH=3.0) containing 10% enriched ^17O water was used as a reference for the measurements. For the DyL4 complexes (no HSA and with HSA+Zinc), acidified water solutions and 1 mM LaL4+3 mM HSA with zinc (1:1) were used as the corresponding references. The corresponding fittings were performed with the Scientist 3.0 software (Micromath®).
^17O NMR data have been analyzed within the framework of Solomon-Bloembergen-Morgan theory.
From the measured ^17O NMR relaxation rates and angular frequencies of the paramagnetic solutions, 1/T1, 1/T2 and ω, and of the acidified water reference, a1/T1A, 1/T2A and ωA, one can calculate the reduced relaxation rates and chemical shifts, 1/7′2, and Δωr, which may be written in Equations (A1)-(A3), where, 1/T1m, 1/T2m, is the relaxation rate of the bound water and Awn, is the chemical shift difference between bound and bulk water molecules, τm is the mean residence time or the inverse of the water exchange rate kex and Pm is the mole fraction of the bound water (Swift and Connick, 1962; Zimmerman and Brittin, 1957).
The outer sphere contributions to the ^17O relaxation rates 1/T1OS and 1/T2OS are being neglected according to previous studies (Micskei et al., 1993). Therefore, Equations (A1-A2) can be further simplified to Equations (A4) and (A5): […]
The exchange rate is supposed to obey the Eyring Equation. In Equation (A6) ΔS^‡ and ΔH^‡ are the entropy and enthalpy of activation for the water exchange process, and kex^298 is the exchange rate at 298.15 K.
In the transverse relaxation, the scalar contribution, 1/T2s, is the most relevant [Equation (A7)]. 1/τsl is the sum of the exchange rate constant and the electron spin relaxation rate [Equation (A8)].
The ^17O longitudinal relaxation rates in Gd^3+ solutions are the sum of the contributions of the dipole-dipole (dd) and quadrupolar (q) mechanisms as expressed by Equations (A11-A13) for non-extreme narrowing conditions, where γS is the electron and γ1 is the nuclear gyromagnetic ratio (γS=1.76×10^11 rad s^−1 T^−1, γ1=˜3.626×107 rad s^−1 T^−1), rGdO is the effective distance between the electron charge and the ^17O nucleus, I is the nuclear spin (5/2 for ^17O), x is the quadrupolar coupling constant and η is an asymmetry parameter:
In Equation (A3) the chemical shift of the bound water molecule, Δωm, depends on the hyperfine interaction between the Gd^3+ electron spin and the ^17O nucleus and is directly proportional to the scalar coupling constant, A/h, as expressed in Equation (A12) (Brittain and Desreux, 1984).
The isotopic Landé g factor is equal to 2.0 for the Gd^3+, B represents the magnetic field, and kB is the Boltzmann constant. […]

[2] = Kinetic inertness (transmetalation by Zn(II) in phosphate buffer); assay type: physicochemical; details: four equivalents of Zn^2+ in phosphate buffer (pH=7), 310 K
Source text: Shortly after the first confirmed clinical cases of nephrogenic systemic fibrosis (NSF), increased efforts have been made to design agents with high thermodynamic stability and kinetic inertness (Kallen et al., 2008; Reilly, 2008; Rofsky et al., 2008; Wiginton et al., 2008; Abujuden et al., 2009). The sensors shown here are very stable macrocyclic DO3A-monoamide derivatives with reported log KML>20. However, given that the agents reported here also have a high affinity for Zn^2+ ions, and Zn^2+ has been implicated as the major competing ion for transmetalation of Gd^3+ agents derived from linear polyamine ligands, the kinetic rate of Gd^3+ release is arguably the most critical factor in determining in vivo toxicity (Laurent et al., 2010). Using a previously published method (Laurent et al., 2010) consisting of incubating each agent with four equivalents of Zn^2+ in phosphate buffer (pH=7), we compared the kinetic stability of the agents reported here with the FDA-approved agent Magnevist® (GdDTPA, cf. FIG. 7).
Kinetic inertness was determined according to published procedures with minor modifications (Laurent et al., 2010; Silverio et al., 2009). Stock solutions of phosphate buffer (67 mM, pH=7.4), Gd(III) chelates (10 mM) and ZnCl2 (231 mM) were prepared first. Calculated volumes of stock solutions or water were pipetted into small glass vials to obtain a test solution of 300 μL with 30 mM phosphate, 1.5 mM Gd(III) chelate, and 6.0 mM Zn(II). Samples were measured 15 minutes after the sample temperature stabilized at 310 K. During the entire experiment, the samples inside the NMR tubes were kept in an incubator at 310 K. The T1 of the solutions was determined at 310 K and 0.47 T (20 MHz) at various time points within 7 days. As a reference, GdDTPA was analyzed under the same conditions. The R1^P relaxation rate is obtained by subtracting the diamagnetic contribution of the water relaxation (0.28 s-1) from the observed relaxation rate R1=(1/T1).

Row | Compound | hyperfine coupling constant (AO/ℏ) [1] | water exchange rate kex^310 [1] | ΔH‡ [1] [kcal/mol] | ER [1] [kcal/mol] | τRO^298 [1] [ps] | A/ℏ [1] | EV [1] [kcal/mol] | Δ^2 [1] | τV^298 [1] [ps] | water exchange rate kex [1] | kinetic stability against transmetalation [2] | faster water exchange rates [1] [fold] | empirical constant describing the outer sphere contribution to the 17O chemical shift, Cos [1]
1 | O=C(O)CN1CCN(CC(=O)O)CCN(CC(=O)NCCN(CCc2ccccn2)Cc2ccccn2)CCN(CC(=O)O)CC1 [GdL4] | −4.0 ± 0.2 ×10^6 rad/s | 3.0 ± 0.1 ×10^6 s^−1 | 3.61 ± 0.359 | 4.16 ± 0.048 | 350 ± 12 | −4.0 ± 0.4 | 0.239 | 0.16 10^20 s^−2 | 11 | ~3 ×106 5-1 | kinetically inert |  | 
2 | O=C(O)CN1CCN(CCC(=O)NCCN(CCc2ccccn2)Cc2ccccn2)CCN(CC(=O)O)CCN(CC(=O)O)CC1 [GdL5] | −3.9 ± 0.3 ×10^6 rad/s | 100 ± 1 ×10^6 s^−1 | 10.9 ± 0.311 | 3.59 | 305 ± 10 | −3.9 ± 0.2 | 0.239 | 0.67 ± 0.2 10^20 s^−2 | 14 ± 0.2 |  |  | ~30 | 
3 | O=C(O)CN1CCN(CC(=O)O)CCN(CC(=O)NCCN(Cc2ccccn2)Cc2ccccn2)CCN(CC(=O)O)CC1 [GdL1] | −4.0 ± 0.2 ×10^6 rad/s | 2.9 ± 0.1 ×10^6 s^−1 | 10.6 ± 0.239 | 4.95 ± 0.048 | 280 ± 11 | −4.0 ± 0.1 | 0.263 ± 0.024 | 0.10 ± 0.01 10^20 s^−2 | 4.6 ± 0.1 | ~3 ×106 5-1 | kinetically inert |  | 
4 | O=C(O)CN1CCN(CCC(=O)NCCN(Cc2ccccn2)Cc2ccccn2)CCN(CC(=O)O)CCN(CC(=O)O)CC1 [GdL2] | −3.7 ± 0.2 ×10^6 rad/s | 100 ± 1 ×10^6 s^−1 | 10.9 ± 0.263 | 4.09 ± 0.048 | 320 ± 11 | −3.7 ± 0.2 | 0.263 ± 0.0024 | 0.13 ± 0.01 10^20 s^−2 | 7.1 ± 0.1 |  | kinetically inert | ~30 | 0.1
5 | O=C(O)CCN1CCN(CC(=O)O)CCN(CC(=O)NCCN(Cc2ccccn2)Cc2ccccn2)CCN(CC(=O)O)CC1 [GdL3] | −3.7 ×10^6 rad/s | 90 ± 0.2 ×10^6 s^−1 | 11.2 ± 0.239 | 4.11 ± 0.024 | 320 | −3.7 | 0.263 | 0.13 10^20 s^−2 | 7.1 |  |  | ~30 | 0.1
